“Also recorded” adds a separate entry of the source. Where two headings read alike, the source gives them in different places.
Key:
[1] = dogs, observed, ref Palo et al. [7], cited from earlier work
CYP3A4 = experiment: clinical DDI prediction, static (IVIVE) and dynamic (PBPK) models, CYP3A4; settings: for FDA Classification as CYP inhibitor: higher of static and dynamic AUCR; for R1: reversible inhibition
Excerpt: (§1) The Ki input values were estimated from the ratio IC50/2. Since the IC50 experiments were designed considering the substrate concentration equal to Km, the simplification of Ki as IC50/2 was considered for a competitive inhibition reaction.
(§2) The following Equation (4) was considered for the potential DDI evaluation:(4) AUCR=AUCwith inhibitor/AUCwithout inhibitor where AUCR is the area under the curve ratio, AUCwith inhibitor is AUC in the presence of the inhibitor, and AUCwithout inhibitor is AUC in the absence of the inhibitor.

CYP1A2 [2] = molecular target: T1, CYP1A2 (Homo sapiens, UniProt P05177); experiment: clinical DDI prediction, static (IVIVE) and dynamic (PBPK) models, CYP1A2
T1 sequence (P05177 1-516): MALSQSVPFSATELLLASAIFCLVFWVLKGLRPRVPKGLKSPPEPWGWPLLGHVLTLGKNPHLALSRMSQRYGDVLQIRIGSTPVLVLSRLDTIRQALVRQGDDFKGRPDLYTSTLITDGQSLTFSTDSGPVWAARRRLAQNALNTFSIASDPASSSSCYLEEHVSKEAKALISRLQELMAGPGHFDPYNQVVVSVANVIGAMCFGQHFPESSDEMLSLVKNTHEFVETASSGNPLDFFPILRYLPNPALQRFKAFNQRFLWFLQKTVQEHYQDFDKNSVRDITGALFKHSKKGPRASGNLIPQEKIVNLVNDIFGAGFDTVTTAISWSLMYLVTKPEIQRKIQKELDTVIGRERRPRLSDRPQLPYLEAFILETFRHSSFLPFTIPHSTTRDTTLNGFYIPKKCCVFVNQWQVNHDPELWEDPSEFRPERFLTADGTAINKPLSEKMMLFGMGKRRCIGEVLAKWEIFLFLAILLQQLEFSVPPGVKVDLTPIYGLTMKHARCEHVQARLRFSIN
Excerpt: as §1, §2

CYP2C8 [3] = molecular target: T2, CYP2C8 (Homo sapiens, UniProt P10632)
T2 sequence (P10632 1-490): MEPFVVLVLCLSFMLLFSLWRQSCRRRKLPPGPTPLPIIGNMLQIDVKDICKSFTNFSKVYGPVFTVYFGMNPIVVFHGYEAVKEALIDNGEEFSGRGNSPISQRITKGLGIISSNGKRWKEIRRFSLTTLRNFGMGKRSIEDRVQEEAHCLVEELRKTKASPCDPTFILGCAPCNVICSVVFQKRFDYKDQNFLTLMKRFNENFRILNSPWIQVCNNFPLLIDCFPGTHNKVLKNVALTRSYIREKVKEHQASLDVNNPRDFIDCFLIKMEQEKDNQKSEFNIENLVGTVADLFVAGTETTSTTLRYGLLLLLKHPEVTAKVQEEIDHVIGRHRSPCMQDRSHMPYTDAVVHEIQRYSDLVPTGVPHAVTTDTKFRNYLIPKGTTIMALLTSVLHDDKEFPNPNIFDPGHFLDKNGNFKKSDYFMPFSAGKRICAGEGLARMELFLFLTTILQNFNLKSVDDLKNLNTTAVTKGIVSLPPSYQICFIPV
Excerpt: as §1, §2

CYP2C9 [4] = molecular target: T3, CYP2C9 (Homo sapiens, UniProt P11712)
T3 sequence (P11712 whole entry): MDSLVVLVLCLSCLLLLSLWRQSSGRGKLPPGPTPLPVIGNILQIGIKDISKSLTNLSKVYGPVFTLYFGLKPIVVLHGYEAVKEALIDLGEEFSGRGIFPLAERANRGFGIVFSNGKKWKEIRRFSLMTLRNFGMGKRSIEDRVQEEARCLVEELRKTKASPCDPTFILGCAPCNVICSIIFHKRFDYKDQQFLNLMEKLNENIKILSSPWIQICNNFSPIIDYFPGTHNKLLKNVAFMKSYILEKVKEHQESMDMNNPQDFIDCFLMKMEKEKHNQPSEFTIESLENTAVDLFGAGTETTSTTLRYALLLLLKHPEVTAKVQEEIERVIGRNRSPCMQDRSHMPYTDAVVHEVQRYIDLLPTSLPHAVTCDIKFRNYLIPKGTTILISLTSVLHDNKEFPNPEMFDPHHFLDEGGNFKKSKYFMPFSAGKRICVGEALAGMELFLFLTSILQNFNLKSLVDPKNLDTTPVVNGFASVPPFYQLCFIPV
Excerpt: as §1, §2

[5] = system: several pathogenic fungi, such as Tricophyton verrucosum, Tricophyton rubrum, Trycophyton mantagrophutes, Microsporum gypseum, Microsporum canis, and …; settings: ref [1]-[7]; cited from earlier work
CYP2C19 [6] = molecular target: T4, CYP2C19 (Homo sapiens, UniProt P33261); experiment: clinical DDI prediction, static (IVIVE) and dynamic (PBPK) models, CYP2C19
T4 sequence (P33261 whole entry): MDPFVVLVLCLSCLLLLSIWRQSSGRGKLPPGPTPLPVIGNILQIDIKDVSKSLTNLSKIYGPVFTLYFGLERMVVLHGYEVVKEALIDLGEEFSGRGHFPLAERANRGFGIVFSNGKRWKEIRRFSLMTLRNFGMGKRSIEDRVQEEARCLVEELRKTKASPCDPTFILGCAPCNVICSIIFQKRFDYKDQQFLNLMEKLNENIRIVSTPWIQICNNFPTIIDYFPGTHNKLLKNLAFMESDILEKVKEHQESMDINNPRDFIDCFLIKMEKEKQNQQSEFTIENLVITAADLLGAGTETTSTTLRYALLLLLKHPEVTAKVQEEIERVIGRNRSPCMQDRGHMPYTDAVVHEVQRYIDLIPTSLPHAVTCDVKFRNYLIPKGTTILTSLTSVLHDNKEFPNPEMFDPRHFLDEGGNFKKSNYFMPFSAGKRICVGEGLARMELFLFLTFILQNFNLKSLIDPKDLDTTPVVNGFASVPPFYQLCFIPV
Excerpt: as §1, §2

CYP2D6 = CYP2D6 (Homo sapiens, UniProt P10635); settings: microsomes
CYP2D6, sequence (P10635 whole entry, canonical isoform): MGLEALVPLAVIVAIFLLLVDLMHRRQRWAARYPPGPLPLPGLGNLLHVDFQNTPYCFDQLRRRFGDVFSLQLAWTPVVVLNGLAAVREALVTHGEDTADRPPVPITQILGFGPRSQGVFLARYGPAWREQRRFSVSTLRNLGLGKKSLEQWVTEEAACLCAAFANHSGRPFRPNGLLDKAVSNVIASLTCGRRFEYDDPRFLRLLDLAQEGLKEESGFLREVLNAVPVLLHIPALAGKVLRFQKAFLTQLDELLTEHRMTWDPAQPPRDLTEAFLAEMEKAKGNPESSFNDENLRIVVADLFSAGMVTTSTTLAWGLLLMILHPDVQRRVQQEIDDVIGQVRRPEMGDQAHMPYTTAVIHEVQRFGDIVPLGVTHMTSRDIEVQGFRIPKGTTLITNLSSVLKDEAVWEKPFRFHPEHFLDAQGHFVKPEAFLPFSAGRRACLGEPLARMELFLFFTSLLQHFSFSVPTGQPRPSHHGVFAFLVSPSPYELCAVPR
Method: (§3) The incubation conditions employed for each CYP450 isoform were performed, as previously described.
(§4) Buffer solution (0.1 mol/L aqueous phosphate buffer, pH 7.4, 69 µL), NADPH-regenerating solutions (10 µL solution A: 26 mmol/L NADP+, 66 mmol/L glucose-6-phosphate, and 66 mmol/L MgCl2; 2 µL solution B: 40 U/mL glucose-6-phosphate dehydrogenase in 5 mmol/L sodium citrate), and deionized water (69 µL) were added, in a total volume of 150 μL. The tubes were vortex-mixed and preincubated with continuous gentle shaking for 5 min at 37 °C in a shaking water bath. Reactions were initiated by the addition of 50 µL of HLM solution in the tubes which were gently mixed by hand and incubated with continuous gentle shaking at 37 °C. Aliquots of 200 µL ice-cold solvent (Table 1) containing IS (1 µg/mL) were added. […] The supernatants were transferred to glass autosampler vials and submitted to LC-MS/MS analysis (5 µL injection volume) to monitor the substrate metabolite formation.

CYP2C8 [7] = molecular target: T2, CYP2C8; settings: microsomes
Method: as §3, §4

CYP2C9 [8] = molecular target: T3, CYP2C9; settings: microsomes
Method: as §3, §4

CYP1A2 [9] = molecular target: T1, CYP1A2; settings: microsomes
Method: as §3, §4

CYP2C19 [10] = molecular target: T4, CYP2C19; settings: microsomes
Method: as §3, §4

For FC(F)(F)c1ccc(COC(Cn2ccnc2)c2ccc(Cl)cc2Cl)cc1 (stereo not drawn) [dapaconazole, Dapaconazole], the AUC0-t ([1]; intravenous 1 mg/kg) is listed as 255.0 ng·h/mL, the CL ([1]; intravenous 1 mg/kg) is listed as 700.0 mL/min and the Cmax ([1]; intravenous 1 mg/kg) is listed as 373.2 ng/mL. For the same molecule, the “t1/2 Terminal” value ([1]; intravenous 1 mg/kg) was 2.1 h, the AUC0-t ([1]; intravenous 2 mg/kg) was 779.9 ng·h/mL and the CL ([1]; intravenous 2 mg/kg) was 591.7 mL/min. The Cmax ([1]; intravenous 2 mg/kg) was 1444.7 ng/mL, the “t1/2 Terminal” value ([1]; intravenous 2 mg/kg) was 2.5 h and the AUC0-t ([1]; intravenous 20 mg/kg) was 4780.1 ng·h/mL. For the same molecule, the CL ([1]; intravenous 20 mg/kg) was 700.0 mL/min, the Cmax ([1]; intravenous 20 mg/kg) was 4708.3 ng/mL and the “t1/2 Terminal” value ([1]; intravenous 20 mg/kg) was 2.3 h. For the same molecule, the “DDI potential from Ki and R1 values” (CYP3A4; CYP3A) was “high potential”, the “FDA Classification as CYP inhibitor” value (CYP3A4; CYP3A4, substrate midazolam) was “Strong (AUCR ≥ 5: strong inhibitor)” and the “FDA Classification as CYP inhibitor” value (CYP3A4; CYP3A4, substrate nifedipine) was “Strong (AUCR ≥ 5: strong inhibitor)”. The “FDA Classification as CYP inhibitor” value (CYP3A4; CYP3A overall) was “strong inhibitor; also recorded: moderate to strong inhibition”, the R1 (CYP3A4; substrate midazolam) was 98.26 and the R1 (CYP3A4; substrate nifedipine) was 25.70. The “DDI potential from Ki and R1 values” (CYP1A2 [2]; CYP1A2) was “moderate potential”, the R1 (CYP1A2 [2]; reversible inhibition, R1=1+(Imax,u/Ki,u), substrate phenacetin) was 1.20 and the “DDI potential from Ki and R1 values” (CYP2C8 [3]) was “low potential”. The R1 (CYP2C8 [3]) was 1.01, the “DDI potential from Ki and R1 values” (CYP2C9 [4]) was “high potential” and the R1 (CYP2C9 [4]) was 4.43. The antifungal activity [5] was “antifungal activity”, the “DDI potential from Ki and R1 values” (CYP2C19 [6]) was “high potential” and the R1 (CYP2C19 [6]; reversible inhibition, substrate S-mephenytoin) was 15.14. For the same molecule, the Ki (CYP2D6) was 430 nM, the “in vitro reversible inhibition class from IC50” value (CYP2C8 [7]) was “slightly inhibits” and the Ki (CYP2C9 [8]) was 110 nM. For the same molecule, the IC50 (CYP1A2 [9]) was 3680 nM, the Ki (CYP1A2 [9]) was 1840 nM and the Ki (CYP2C19 [10]) was 30 nM.
